According to PubChem BioAssay (NCI):
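Step 1: Grow cells in 96-well plates. Step 2: Expose to compound for 48 hours at 5 concentrations. Step 3: Interpolate endpoints linearly; if unreached, use highest concentration. GI50 marks 50% less growth. TGI: concentration producing complete growth inhibition.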

Tests used:
Test in all cases: NCI anticancer screen, dose series, 48 h
HOP-92 NSCLC = system: HOP-92 NSCLC
ACHN renal = system: ACHN renal
SNB-75 CNS = system: SNB-75 CNS
HT29 colon = system: HT29 colon
A549 NSCLC = system: A549 NSCLC
HCC-2998 colon = system: HCC-2998 colon
T-47D breast = system: T-47D breast
SK-MEL-28 melanoma = system: SK-MEL-28 melanoma
MCF7 breast = system: MCF7 breast
K-562 leukemia = system: K-562 leukemia
SK-MEL-5 melanoma = system: SK-MEL-5 melanoma
SF-539 CNS = system: SF-539 CNS
SW-620 colon = system: SW-620 colon
IGROV1 ovarian = system: IGROV1 ovarian
SN12C renal = system: SN12C renal
NCI-H23 lung = system: NCI-H23 lung
OVCAR-8 ovarian = system: OVCAR-8 ovarian
HOP-62 NSCLC = system: HOP-62 NSCLC
RPMI-8226 leukemia = system: RPMI-8226 leukemia
MALME-3M melanoma = system: MALME-3M melanoma
RXF 393 renal = system: RXF 393 renal
U251 CNS = system: U251 CNS
MDA-MB-468 breast = system: MDA-MB-468 breast
SF-268 CNS = system: SF-268 CNS
UACC-257 melanoma = system: UACC-257 melanoma
UACC-62 melanoma = system: UACC-62 melanoma
MOLT-4 leukemia = system: MOLT-4 leukemia
NCI/ADR-RES ovarian = system: NCI/ADR-RES ovarian
786-0 renal = system: 786-0 renal
OVCAR-5 ovarian = system: OVCAR-5 ovarian

For O=C(N/N=C/c1ccc(Br)o1)c1[nH]c2ccc(Br)cc2c1-c1ccccc1, the TGI (HOP-92 NSCLC) was 32700 nM, the GI50 (ACHN renal) was 504 nM and the TGI (ACHN renal) was 40100 nM. It also gave a GI50 (SNB-75 CNS) of 464 nM, a TGI (SNB-75 CNS) of 22800 nM and a GI50 (HT29 colon) of 298 nM. The TGI (HT29 colon) was 2980 nM, the GI50 (A549 NSCLC) was 383 nM and the TGI (A549 NSCLC) was 28700 nM. The GI50 (HCC-2998 colon) was 385 nM, the TGI (HCC-2998 colon) was 18500 nM and the GI50 (T-47D breast) was 4180 nM. The TGI (T-47D breast) was over 100000 nM, the GI50 (SK-MEL-28 melanoma) was 1120 nM and the TGI (SK-MEL-28 melanoma) was 46900 nM. It also gave a GI50 (MCF7 breast) of 341 nM, a TGI (MCF7 breast) of over 100000 nM and a GI50 (K-562 leukemia) of 339 nM. It also gave a TGI (K-562 leukemia) of over 44500 nM, a GI50 (SK-MEL-5 melanoma) of 204 nM and a TGI (SK-MEL-5 melanoma) of 424 nM. For the same compound, the GI50 (SF-539 CNS) was 226 nM, the TGI (SF-539 CNS) was 562 nM and the GI50 (SW-620 colon) was 374 nM. The TGI (SW-620 colon) was 22900 nM, the GI50 (IGROV1 ovarian) was 421 nM and the TGI (IGROV1 ovarian) was over 46700 nM. The GI50 (SN12C renal) was 377 nM, the TGI (SN12C renal) was 14200 nM and the GI50 (NCI-H23 lung) was 393 nM. For the same compound, the TGI (NCI-H23 lung) was 29300 nM, the GI50 (OVCAR-8 ovarian) was 297 nM and the TGI (OVCAR-8 ovarian) was 2830 nM. For the same compound, the GI50 (HOP-62 NSCLC) was 565 nM, the TGI (HOP-62 NSCLC) was 27400 nM and the GI50 (RPMI-8226 leukemia) was 415 nM. For the same compound, the TGI (RPMI-8226 leukemia) was over 100000 nM, the GI50 (MALME-3M melanoma) was 480 nM and the TGI (MALME-3M melanoma) was 47500 nM. For the same compound, the GI50 (RXF 393 renal) was 443 nM, the TGI (RXF 393 renal) was 21400 nM and the GI50 (U251 CNS) was 337 nM. It also gave a TGI (U251 CNS) of 16900 nM, a GI50 (MDA-MB-468 breast) of 228 nM and a TGI (MDA-MB-468 breast) of 585 nM. For the same compound, the GI50 (SF-268 CNS) was 861 nM, the TGI (SF-268 CNS) was over 52900 nM and the GI50 (UACC-257 melanoma) was 2690 nM. For the same compound, the TGI (UACC-257 melanoma) was over 100000 nM, the GI50 (UACC-62 melanoma) was 395 nM and the TGI (UACC-62 melanoma) was over 76500 nM. The GI50 (MOLT-4 leukemia) was 431 nM, the TGI (MOLT-4 leukemia) was over 38200 nM and the GI50 (NCI/ADR-RES ovarian) was 231 nM. The TGI (NCI/ADR-RES ovarian) was 583 nM, the GI50 (786-0 renal) was 397 nM and the TGI (786-0 renal) was 6150 nM. The GI50 (OVCAR-5 ovarian) was 372 nM and the TGI (OVCAR-5 ovarian) was 22000 nM.
